Numbers after ± are expanded uncertainties.
Compound	Triple point temperature (Crystal 2, DSC)	Normal melting temperature (Crystal 1, DTA)
[K+].[O-][Cl+3]([O-])([O-])[O-] [potassium perchlorate]	579.15 ± 2 K	–
[Al] [aluminum]	–	662.00 ± 2 °C
